The results in this text go back to patent US20230123334A1, “AMINO LIPID COMPOUND, PREPARATION METHOD THEREFOR, AND APPLICATION THEREOF” (SHENZHEN SHENXIN BIOTECHNOLOGY CO., LTD., priority 2020, published 2023).

The assay deals with HEK293 cells. Kind of assay: Preliminary screening as mRNA vectors, EGFP mRNA transfection of HEK293 cells. Format: cell-based. Conditions: EGFP mRNA 50 ng per well, 96-well plates; percentage of GFP fluorescent cells relative to total number of cells (Hoechst). The gist of the method: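 Each well of HEK293 cells received 50 ng of EGFP mRNA. Efficiency was expressed as percent GFP-expressing cells over Hoechst-defined total cell number.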
Take `CCCCCCSc1nc(NCCCN2CCN(C)CC2)nc(SCCCCCC)n1` [Compound D9S6S6]: the “Absolute mRNA transfection efficiency in HEK293 cells” value (“Absolute mRNA transfection efficiency” for short) is reported as 8.0%. The value for `CCCCCCCSc1nc(NCCCN2CCN(C)CC2)nc(SCCCCCC)n1` [Compound D9S6S7] was 6.3%; that for `CCCCCCCCSc1nc(NCCCN2CCN(C)CC2)nc(SCCCCCC)n1` [Compound D9S6S8] was 3.0%; that for `CCCCCCCCCSc1nc(NCCCN2CCN(C)CC2)nc(SCCCCCC)n1` [Compound D9S6S9] was 5.6%. The value for `CCCCCCCCCCSc1nc(NCCCN2CCN(C)CC2)nc(SCCCCCC)n1` [Compound D9S6S10] was 23.7%; that for `CCCCCCCCCCCSc1nc(NCCCN2CCN(C)CC2)nc(SCCCCCC)n1` [Compound D9S6S11] was 8.5%; that for `CCCCCCCCCCCCSc1nc(NCCCN2CCN(C)CC2)nc(SCCCCCC)n1` [Compound D9S6S12] was 1.0%.

For `CCCCCCCCCCCCCCSc1nc(NCCCN2CCN(C)CC2)nc(SCCCCCC)n1` [Compound D9S6S14], the “Absolute mRNA transfection efficiency” value is listed as 35.8%.

As to `CCCCCCCCCCCCCCCSc1nc(NCCCN2CCN(C)CC2)nc(SCCCCCC)n1` [Compound D9S6S15], the “Absolute mRNA transfection efficiency” value stood at 6.5%. With `CCCCCCCCCCCCCCCCSc1nc(NCCCN2CCN(C)CC2)nc(SCCCCCC)n1` [Compound D9S6S16], the “Absolute mRNA transfection efficiency” value is 38.2%. Turning to `CCCCCCCCCCCCCCCCCCSc1nc(NCCCN2CCN(C)CC2)nc(SCCCCCC)n1` [Compound D9S6S18], the “Absolute mRNA transfection efficiency” value was determined as 62.8%. Take `CCCCCCCSc1nc(NCCCCCC)nc(NCCCN2CCN(C)CC2)n1` [Compound D9S7N6]: the “Absolute mRNA transfection efficiency” value turned out to be 0.8%. For the compound `CCCCCCCNc1nc(NCCCN2CCN(C)CC2)nc(SCCCCCCC)n1` [Compound D9S7N7], the “Absolute mRNA transfection efficiency” value turned out to be 2.5%. On to `CCCCCCCCNc1nc(NCCCN2CCN(C)CC2)nc(SCCCCCCC)n1` [Compound D9S7N8], for which the “Absolute mRNA transfection efficiency” value came out at 1.7%.

As to `CCCCCCCCCNc1nc(NCCCN2CCN(C)CC2)nc(SCCCCCCC)n1` [Compound D9S7N9], the “Absolute mRNA transfection efficiency” value is 5.2%. On to `CCCCCCCCCCCNc1nc(NCCCN2CCN(C)CC2)nc(SCCCCCCC)n1` [Compound D9S7N11], for which the “Absolute mRNA transfection efficiency” value was 13.8%. Turning to `CCCCCCCCCCCCNc1nc(NCCCN2CCN(C)CC2)nc(SCCCCCCC)n1` [Compound D9S7N12], the “Absolute mRNA transfection efficiency” value is 62.7%. Regarding `CCCCCCCCCCCCCNc1nc(NCCCN2CCN(C)CC2)nc(SCCCCCCC)n1` [Compound D9S7N13], the “Absolute mRNA transfection efficiency” value amounted to 60.4%. The value for `CCCCCCCCCCCCCCCNc1nc(NCCCN2CCN(C)CC2)nc(SCCCCCCC)n1` [Compound D9S7N15] was 32.6%. The value for `CCCCCCCCCCCCCCCCNc1nc(NCCCN2CCN(C)CC2)nc(SCCCCCCC)n1` [Compound D9S7N16] was 29.3%; that for `CCCCCCCCCCCCCCCCCCNc1nc(NCCCN2CCN(C)CC2)nc(SCCCCCCC)n1` [Compound D9S7N18] was 37.1%; that for `CCCCCCCSc1nc(NCCCN2CCN(C)CC2)nc(SCCCCCCC)n1` [Compound D9S7S7] was 18.3%. In the case of `CCCCCCCCSc1nc(NCCCN2CCN(C)CC2)nc(SCCCCCCC)n1` [Compound D9S7S8], the “Absolute mRNA transfection efficiency” value came to 43.7%. The value for `CCCCCCCCCSc1nc(NCCCN2CCN(C)CC2)nc(SCCCCCCC)n1` [Compound D9S7S9] was 35.3%. The value for `CCCCCCCCCCSc1nc(NCCCN2CCN(C)CC2)nc(SCCCCCCC)n1` [Compound D9S7S10] was 47.1%; that for `CCCCCCCCCCCSc1nc(NCCCN2CCN(C)CC2)nc(SCCCCCCC)n1` [Compound D9S7S11] was 80.0%. The value for `CCCCCCCCCCCCSc1nc(NCCCN2CCN(C)CC2)nc(SCCCCCCC)n1` [Compound D9S7S12] was 26.4%. On to `CCCCCCCCCCCCCCSc1nc(NCCCN2CCN(C)CC2)nc(SCCCCCCC)n1` [Compound D9S7S14], for which the “Absolute mRNA transfection efficiency” value is 34.5%.

As to `CCCCCCCCCCCCCCCSc1nc(NCCCN2CCN(C)CC2)nc(SCCCCCCC)n1` [Compound D9S7S15], the “Absolute mRNA transfection efficiency” value is listed as 9.6%. The value for `CCCCCCCCCCCCCCCCSc1nc(NCCCN2CCN(C)CC2)nc(SCCCCCCC)n1` [Compound D9S7S16] was 9.2%; that for `CCCCCCCCCCCCCCCCCCSc1nc(NCCCN2CCN(C)CC2)nc(SCCCCCCC)n1` [Compound D9S7S18] was 34.3%. Take `CCCCCCCCSc1nc(NCCCCCC)nc(NCCCN2CCN(C)CC2)n1` [Compound D9S8N6]: the “Absolute mRNA transfection efficiency” value turned out to be 0.7%. Regarding `CCCCCCCCSc1nc(NCCCCCCC)nc(NCCCN2CCN(C)CC2)n1` [Compound D9S8N7], the “Absolute mRNA transfection efficiency” value is reported as 1.4%. On to `CCCCCCCCNc1nc(NCCCN2CCN(C)CC2)nc(SCCCCCCCC)n1` [Compound D9S8N8], for which the “Absolute mRNA transfection efficiency” value is given as 4.5%. The value for `CCCCCCCCCNc1nc(NCCCN2CCN(C)CC2)nc(SCCCCCCCC)n1` [Compound D9S8N9] was 57.0%; that for `CCCCCCCCCCCNc1nc(NCCCN2CCN(C)CC2)nc(SCCCCCCCC)n1` [Compound D9S8N11] was 81.7%. The value for `CCCCCCCCCCCCNc1nc(NCCCN2CCN(C)CC2)nc(SCCCCCCCC)n1` [Compound D9S8N12] was 57.6%. For `CCCCCCCCCCCCCNc1nc(NCCCN2CCN(C)CC2)nc(SCCCCCCCC)n1` [Compound D9S8N13], the “Absolute mRNA transfection efficiency” value is reported as 46.5%. As to `CCCCCCCCCCCCCCCNc1nc(NCCCN2CCN(C)CC2)nc(SCCCCCCCC)n1` [Compound D9S8N15], the “Absolute mRNA transfection efficiency” value is on record as 37.8%.

On to `CCCCCCCCCCCCCCCCNc1nc(NCCCN2CCN(C)CC2)nc(SCCCCCCCC)n1` [Compound D9S8N16], for which the “Absolute mRNA transfection efficiency” value came out at 21.2%. The value for `CCCCCCCCCCCCCCCCCCNc1nc(NCCCN2CCN(C)CC2)nc(SCCCCCCCC)n1` [Compound D9S8N18] was 29.4%. In the case of `CCCCCCCCSc1nc(NCCCN2CCN(C)CC2)nc(SCCCCCCCC)n1` [Compound D9S8S8], the “Absolute mRNA transfection efficiency” value worked out at 53.3%. The value for `CCCCCCCCCSc1nc(NCCCN2CCN(C)CC2)nc(SCCCCCCCC)n1` [Compound D9S8S9] was 85.2%; that for `CCCCCCCCCCSc1nc(NCCCN2CCN(C)CC2)nc(SCCCCCCCC)n1` [Compound D9S8S10] was 79.4%; that for `CCCCCCCCCCCSc1nc(NCCCN2CCN(C)CC2)nc(SCCCCCCCC)n1` [Compound D9S8S11] was 97.6%.

For the compound `CCCCCCCCCCCCSc1nc(NCCCN2CCN(C)CC2)nc(SCCCCCCCC)n1` [Compound D9S8S12], the “Absolute mRNA transfection efficiency” value was 23.6%.
